Read-outs that look alike come from different tables or passages of the source. Square brackets hold non-standard residues; d marks the D form. Peptide text beside a SMILES is read from it. Sta = CC(C)C[C@H](N)[C@@H](O)CC(=O)O; AEEA = NCCOCCOCC(=O)O
Legend:
HIV-1 protease = biological target: T1, HIV-1 protease (Human immunodeficiency virus type 1 group M subtype B, UniProt P04585); test: Inhibition of HIV-1 protease activity (spectrophotometric, chromogenic peptide substrate); assay type: biochemical; conditions: pH 4.7, substrate 16 μM
T1 construct: HIV-1 protease is a homodimeric aspartic protease
Procedure: The inhibition analyses were performed by spectrophotometric assay using the chromogenic peptide substrate KARVNle*NphEANle-NH2 as previously described.
The 1 ml reaction mixture contained 100 mM sodium acetate, 300 mM NaCl, pH 4.7, 6.8 pmol of HIV-1 protease and inhibitor in concentrations ranging between 2 and 130 nM. Substrate was added to a final concentration of 16 μM. Afterwards, the hydrolysis of substrate was followed as a decrease in absorbance at 305 nm using a UNICAM UV500 UV-VIS spectrophotometer (Thermo, Cambridge, Mass.). The data were analyzed using the equation for competitive inhibition according to Williams and Morrison. The mechanism of inhibition was determined by analysis of Lineweaver-Burk plots.

[1] = biological target: T2, recombinant extracellular GCPII (Avi-GCPII) (Homo sapiens, UniProt Q04609); test: Inhibition of GCPII hydrolytic activity (HPLC assay); assay type: biochemical
T2 construct: using a recombinant extracellular GCPII (Avi-GCPII; prepared according to [13]); Avi-tag; made in house
Procedure: Inhibitory potency of the inhibitors and polymeric conjugates on the hydrolytic activity of GCPII were tested by HPLC (described in [12]) using a recombinant extracellular GCPII (Avi-GCPII; prepared according to [13]). 210 pg of GCPII was mixed with a solution of 25 mM Bis-Tris propane, 150 mM NaCl, pH 7.4, 0.001% monododecyl(oktaethylenglycol)ether (Affymetrix, Octaethylene glycol monododecyl ether) and inhibitor solution to a total volume of 180 μl in a 96-well plate. Ten different inhibitor concentrations covering the whole inhibition curve were used. Reactions were first incubated 5 min at 37° C., then initiated by addition of 20 μl of pteroyl-bis(L-glutamate) to a final concentration of 400 nM and incubated at 37° C. for 20 min. […] Subsequently, 100 μl of the reaction mixture was analyzed in Agilent 1200 Infinity (Agilent Technologies, Inc.) on an RP-HPLC column Waters Acquity UPLC HSS T3 1.8 μm, 2.1×100 mm (Waters). HPLC analysis was performed isocratically in 2.7% acetonitrile and 97.3% 20 mM phosphate, pH 6.0. Substrate and product absorbance was measured at 281 nm. IC50 values were obtained from GraFit v.5.0.11 (Erithacus Software Ltd.).
Assuming competitive type of inhibition and using the values of KM and kcat, the Ki values for each inhibitor were determined from the Cheng-Prusoff equation [14].

CA-IX = CA-IX (Homo sapiens, UniProt Q16790); test: Affinity isolation (pull-down) of CA-IX from HT-29 cell lysate; assay type: binding; set-up: HT-29 cell line endogenously expressing CA-IX; endogenous in cells; host or cells: HT-29; conditions: conjugate on Streptavidin Sepharose, Western blot
Procedure: HT29 cells (cultured in 100 mm Petri dish) endogenously expressing CA-IX were lysed by sonication in a water bath (3 min/0° C.) in 450 μl of 50 mM Tris-HCl, 150 mM NaCl, pH 7.4, 1% Tween 20. Resulting cell lysate was further diluted in 20 mM Tris-HCl, 150 mM NaCl, 0.1% Tween 20, pH 7.4 (TBST) to a final protein concentration of 360 μg/ml. Meanwhile, Conjugate 3 and Conjugate 2 (negative control showing nonspecific binding) were pre-bound to 25 μl of Streptavidin Sepharose (200 nM solution in 200 μl of TBST, 1 hour, 6° C.), and after washing with 3×200 μl TBST, the resin was mixed with 200 μl of HT-29 cell lysate and incubated at 25° C. for 3 hours. The resin was then washed with 3×200 μl of TBST and subsequently, proteins were eluted with 25 μl of sample buffer for SDS-PAGE and with heating to 98° C. for 10 min.
To compare the effectiveness of CA-IX isolation with Conjugate 3, CA-IX was also isolated with M75 antibody. The experiment was performed analogously to experiment with polymeric conjugates: 1 μg of antibody was pre-bound to 20 μl of Protein G Sepharose the procedure followed as described above. […]
After isolation, samples were separated by SDS-PAGE electrophoresis and the gel was blotted to a nitrocellulose membrane (wet blot 100 V/1 hour). […] Chemiluminescence was recorded with ChemiDoc It™ 600 Imaging System (UVP).

[2] = read-out: Ki [nM] towards HIV-1 protease

T2 sequence (Q04609 44-750 limits assumed): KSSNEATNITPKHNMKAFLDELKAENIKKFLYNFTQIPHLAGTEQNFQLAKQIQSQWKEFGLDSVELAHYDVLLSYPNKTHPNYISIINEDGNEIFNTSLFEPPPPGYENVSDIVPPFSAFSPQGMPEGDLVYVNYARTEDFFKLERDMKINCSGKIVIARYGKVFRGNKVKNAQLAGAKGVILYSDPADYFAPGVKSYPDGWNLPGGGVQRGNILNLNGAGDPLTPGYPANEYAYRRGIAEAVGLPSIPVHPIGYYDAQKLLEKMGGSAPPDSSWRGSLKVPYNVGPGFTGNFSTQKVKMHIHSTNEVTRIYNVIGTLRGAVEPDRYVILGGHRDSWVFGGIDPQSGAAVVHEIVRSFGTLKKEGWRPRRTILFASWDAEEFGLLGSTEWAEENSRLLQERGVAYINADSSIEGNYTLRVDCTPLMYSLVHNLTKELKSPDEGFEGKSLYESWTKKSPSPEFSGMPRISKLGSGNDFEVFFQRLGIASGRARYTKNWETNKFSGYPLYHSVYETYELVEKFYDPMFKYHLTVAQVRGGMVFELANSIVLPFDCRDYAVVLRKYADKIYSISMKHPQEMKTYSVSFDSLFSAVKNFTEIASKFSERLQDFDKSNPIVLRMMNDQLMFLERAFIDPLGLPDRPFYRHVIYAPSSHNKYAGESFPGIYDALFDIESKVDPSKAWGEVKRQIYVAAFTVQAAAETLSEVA

## CC(C)[C@H](NC(=O)COCCOCCNC(=O)COCCOCCN)C(=O)N[C@@H](Cc1ccccc1)C[C@H](O)[C@H](Cc1ccccc1)NC(=O)OCc1cncs1 [compound C, (5S,6S,8S,11S)-5,8-dibenzyl-6-hydroxy-11-isopropyl-3,10,13,22-tetraoxo-1-(thiazol-5-yl)-2,15,18,24,27-pentaoxa-4,9,12,21-tetraazanonacosan-29-aminium 2,2,2-trifluoroacetate]
HIV-1 protease; [2]
  Ki: 0.012 ± 0.001 nM
HIV-1 protease; read-out: Ki towards HIV-1 protease
  Ki: 0.013 nM

## NCCOCCOCCOCCOCCOCCC(=O)N(CCCC[C@H](NC(=O)N[C@@H](CCC(=O)O)C(=O)O)C(=O)O)Cc1ccc(Br)cc1 [Compound A, (24S,28S)-19-(4-bromobenzyl)-24,28,30-tricarboxy-18,26-dioxo-3,6,9,12,15-pentaoxa-19,25,27-triazatriakontan-1-aminium 2,2,2-trifluoroacetate]
[1]
  Ki: 2030 pM

## CC(C)C[C@H](NC(=O)[C@H](C)NC(=O)C[C@H](O)[C@H](CC(C)C)NC(=O)[C@@H](NC(=O)[C@@H](NC(=O)COCCOCCNC(=O)COCCOCCN)C(C)C)C(C)C)[C@@H](O)CC(=O)O [compound D, (19S,22S,25S,26S,30S,33S)-33-((S)-2-carboxy-1-hydroxyethyl)-26-hydroxy-25-isobutyl-19,22-diisopropyl-30,35-dimethyl-8,17,20,23,28,31-hexaoxo-3,6,12,15-tetraoxa-9,18,21,24,29,32-hexaazahexatriacontan-1-aminium] (H-[AEEA][AEEA]VV[Sta]A[Sta]-OH)
HIV-1 protease; [2]
  Ki: 590 nM

## poly(HPMA-co-Ma-β-Ala-ATTO488-co-Ma-β-Ala-NH-biotin) [Conjugate 2]
[1]
  inhibition of the activity of GCPII: did not inhibit the activity of GCPII
CA-IX
  affinity isolation / binding of CA-IX from lysate of HT-29 cells: no binding of CA-IX

— patent publication US10302632B2, “Macromolecular conjugates for visualization and separation of proteins and cells” (USTAV ORGANICKE CHEMIE A BIOCHEMIE AV CR, V.V.I., priority 2015, dated 2019)
